Test results as given in patent US8012944B2, “Method for treating cancer using IAP antisense oligomer and chemotherapeutic agent” (Pharmascience Inc., priority 2003, dated 2011).
Oligonucleotides are written 5' to 3', each unit as a sugar letter and its base; * is a phosphorothioate linkage, no mark a phosphodiester; rarer units and linkages stand in square brackets, end groups in braces. Plain capitals give the bases only. d = 2'-deoxy (DNA); m = 2'-O-methyl

What was measured:
Assay type in all cases: cell-based, human
XIAP RNA = XIAP RNA knock-down in T24 cells (TaqMan quantitative PCR)
Text: (§1) We used TaqMan quantitative PCR (described below) to assay for changes in mRNA levels after oligonucleotide treatment. We employed ELISA for determining XIAP protein levels and western blotting for determining HIAP1 protein levels. Transfection conditions were optimized with Lipofectamine plus or Lipofectamine 2000 (Life Technologies, Canada) on T24 bladder carcinoma cells or H460 non-small cell lung carcinoma cells, or lipofectin on SF-295 glioblastoma cells, using a fluorescein-tagged sense oligonucleotide (5′-mGmAGAAGATGACTGGTAAmCmA-3′; SEQ ID NO: 261) from XIAP spanning the start codon as a control. The results were visualized and gauged by epi-fluorescence microscopy. In the case of T24 cells, transfections were further optimized based on the ability of a published oligonucleotide to downregulate survivin expression (Li et al., Nat. Cell Biol. 1:461-466, 1999) (5′-U/TGTGCTATTCTGTGAAU/TU/T-3′ SEQ ID NO: 262). We optimized the transfection conditions based on the TaqMan results of survivin RNA knock-down detected with PCR primers and fluorescent probe, described in detail below. […] We then applied these conditions to screen for XIAP protein knock-down using the oligo library against T24 cells.
(§2) RNA was extracted from cells lysed in RLT buffer (QIAGEN, Valencia, Calif.), and purified using QIAGEN RNeasy columns/kits. Real-time quantitative PCR was performed on a Perkin-Elmer ABI 7700 Prism PCR machine. RNA was reverse transcribed and amplified according to the TaqMan Universal PCR Master Mix protocol of PE Biosystems, using primers and probes designed to specifically recognize XIAP, HIAP1, survivin, or GAPDH. For human survivin, the forward primer was 5′-[…]-3′ (SEQ ID NO: 263), the reverse primer was 5′-GAAAGGAAAGCGCAACCG-3′ (SEQ ID NO: 264), and the probe was 5′-(FAM)[…](TAMRA)-3′ (SEQ ID NO: 265). For human HIAP1, the forward primer was 5′-[…]-3′ (SEQ ID NO: 266), the reverse primer was 5′-[…]-3′ (SEQ ID NO: 267), and the probe was 5′-(FAM)[…](TAMRA)-3′ (SEQ ID NO: 268). For human XIAP, the forward primer was 5′-[…]-3′ (SEQ ID NO: 269), the reverse primer was 5′-[…]-3′ (SEQ ID NO: 270), and the probe was 5′-(FAM)[…](TAMRA)-3′ (SEQ ID NO: 271). For human GAPDH, the forward primer was 5′-GAAGGTGAAGGTCGGAGTC-3′ (SEQ ID NO: 272), the reverse primer was 5′-GAAGATGGTGATGGGATTC-3′ (SEQ ID NO: 273), and the probe was 5′-(JOE)[…](TAMRA)-3′ (SEQ ID NO: 274). FAM is 6-carboxyfluoroscein, JOE is 6-carboxy-4,5-dichloro-2,7-dimethoxyfluoroscein, and TAMRA is 6-carboxy-N,N,N′,N′-tetramethylrhodamine. FAM and JOE are 5′ reporter dyes, while TAMRA is a 3′ quencher dye.
(§3) Relative quantification of gene expression was performed as described in the PE Biosystems manual using GAPDH as an internal standard. The comparative Ct (cycle threshold) method was used for relative quantitation of IAP mRNA levels compared to GAPDH mRNA levels. Briefly, real-time fluorescence measurements were taken at each PCR cycle and the threshold cycle (Ct) value for each sample was calculated by determining the point at which fluorescence exceeded a threshold limit of 30 times the baseline standard deviation. The average baseline value and the baseline SD are calculated starting from the third cycle baseline value and stopping at the baseline value three cycles before the signal starts to exponentially rise. The PCR primers and/or probes for the specific IAPs were designed to span at least one exon-intron boundary separated by 1 kb or more of genomic DNA, to reduce the possibility of amplifying and detecting genomic DNA contamination. The specificity of the signal, and possible contamination from DNA, were verified by treating some RNA samples with either DNase or RNase, prior to performing the reverse transcription and PCR reaction steps.
The XIAP synthetic library of 96 antisense oligonucleotides was first screened for decreases in XIAP protein levels. […]

XIAP protein = XIAP protein knock-down in T24 cells (XIAP ELISA, relative to total protein); settings: for XIAP protein levels relative to total protein, compared to mock transfection (in words): first screen of the library
Text: as §1
A standard colorimetric XIAP ELISA assay was performed using an affinity-purified rabbit polyclonal antibody to XIAP as a capture antibody, and was detected with a XIAP monoclonal antibody (MBL, Japan) and a biotinylated anti-mouse Ig antibody and horseradish peroxidase-conjugated streptavidin and TMB substrate. Alternatively, a polyclonal XIAP or HIAP1 antibody may be used to measure XIAP or HIAP1 protein levels, respectively.
The XIAP synthetic library of 96 antisense oligonucleotides was first screened for decreases in XIAP protein levels. Specifically, T24 cells (1.5×10^4 cells/well) were seeded in wells of a 96-well plate on day 1, and were cultured in antibiotic-free McCoy's medium for 24 hours. On day 2, the cells were transfected with XIAP antisense oligonucleotides as described above (oligonucleotides are labeled according to their plated position, i.e., A1 to H12, and include two repeats, A13 and B13 that contain lyophilized DNA pellets that stuck to the sealing membrane). Briefly, the nucleobase oligomers were diluted in 10 μl/well of serum-free, antibiotic-free McCoy's medium and then PLUS reagent was added. Lipofectamine was diluted in 10 μl/well of serum-free, antibiotic-free McCoy's medium, and both mixes were incubated for 15 minutes at room temperature. The mixes were then combined and incubated for 15 minutes at room temperature.
In the meantime, the complete medium was removed from the cells and 50 μl/well of serum-free, antibiotic-free medium was added to the cells. The transfection mixes were added to the well, and the cells were incubated for three hours. Then 30 μl/well of serum-free, antibiotic-free medium and 100 μl/well of antibiotic-free complete medium, containing 20% fetal bovine serum were added to each well.
At day 3, XIAP RNA levels were measured using quantitative real-time PCR techniques, as described above. At day 4, XIAP protein levels were measured by ELISA (FIGS. 1A, 1C, 1E, 1G, 1I, and 1K), and total cellular protein was measured biochemically (FIGS. 1B, 1D, 1F, 1H, 1J, and 1L; used to normalize the XIAP protein levels). The results were compared to a mock transfection sample (treated with the transfection agent but no oligonucleotide DNA was added, and then processed as for the other samples). Time course experiments determined that the optimal time for protein knock-down to be around 12 to 24 hours. […]

XIAP mRNA [1] = test: XIAP mRNA knock-down in H460 cells (real-time RT-PCR / TaqMan); settings: 2 × 2 MBO; NCI-H460 cells, 9 hours post-transfection; relative level (mock control 1.01)
XIAP mRNA [2] = test: as above
Outline: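 NCI-H460 cells transfected with phosphorothioate antisense oligonucleotides via Lipofectamine 2000; RNA isolated after 6 h treatment. XIAP mRNA quantified by one-step TaqMan real-time RT-PCR, comparative Ct (threshold 30× baseline SD), normalized to GAPDH and expressed relative to untreated control cells.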

HIAP1 protein = HIAP1 protein in cycloheximide-induced SF295 cells (western blot)
Text: HIAP1 was detected on a western immunoblot using an affinity-purified anti-rat HIAP1 rabbit polyclonal antibody as a primary antibody and was detected by ECL (Amersham) on X-ray film with a secondary horseradish-peroxidase-conjugated anti-rabbit Ig antibody and a chemiluminescent substrate. The anti-HIAP1 polyclonal antibody is raised against a GST-fusion of the rat HIAP1. This antibody cross-reacts with both human and murine HIAP1 and HIAP2.
The effect of HIAP1 antisense nucleobase oligomers on HIAP1 protein and mRNA expression was also examined in cells induced to express HIAP1. SF295 cells were transfected with oligonucleotides, or were mock transfected. The transfected cells were then treated with 10 μg/ml cycloheximide for 24 hours to induce 70 kDa HIAP1 mRNA and protein. Protein levels were measured by western blot analysis with an anti-HIAP1 polyclonal antibody, and normalized against actin protein in a re-probing of the same blots. The densitometric scan results were plotted against the mock results (set at 100%) in FIG. 22B. […] The transfection process itself (e.g., mock or scrambled survivin) induces HIAP1 protein compared to the untreated sample as shown on the western immunoblot.

HIAP1 mRNA = HIAP1 mRNA in SF295 cells, basal conditions (TaqMan); parameters: decrease of HIAP1 mRNA compared to mock or scrambled survivin control: concentration or dose not given beside the values; settings: for HIAP1 mRNA levels (in words): SF295 cells (FIG. 21); for decrease of HIAP1 mRNA compared to mock or scrambled survivin control: SF295 cells, six hours after transfection
Method: as §2, §3
A library of 15 HIAP1 antisense nucleobase oligomers as oligonucleotides was screened for protein knock-down by western blot analysis and for RNA knock-down by TaqMan, using the primers and probes described in Example 3, above, under two different conditions. HIAP1 RNA levels may be detected using standard Northern blot analyses or RT-PCR techniques. The antisense oligonucleotides were administered to cells under basal conditions or under cycloheximide-induction conditions (24 hour treatment with sub-toxic doses). Cycloheximide (CHX) can lead to a 10- to 200-fold induction of HIAP1 mRNA depending on the cell line treated. […] This effect of CHX is via two distinct mechanisms of action. First, CHX activates NFkB, a known transcriptional inducer of HIAP1, by blocking the de novo synthesis of a labile protein, IkB, which is an inhibitor of NFkB. This effect is mimicked by puromycin, another protein synthesis inhibitor, and by TNF-alpha, which induces a signaling cascade leading to the phosphorylation, ubiquination, and degradation of IkB.
SF295 glioblastoma cells were transfected with lipofectin and oligonucleotide (scrambled survivin, no oligonucleotide, antisense APO 1 to APO 15) or left untreated. […]

AATATGTAAACTGTGATGC (mA*mAdTdAdTdGdTdAdAdAdCdTdGdTdGdAdTmG*mC; antisense) [Code C2]
XIAP down-regulation T24 RNA (XIAP RNA): 36% | XIAP down-regulation T24 protein (XIAP protein): 45% | XIAP protein levels relative to total protein, compared to mock transfection (in words) (XIAP protein): some decrease | XIAP RNA (XIAP mRNA [1]): 0.33 | XIAP down-regulation H460 RNA (XIAP mRNA [2]): 70%

CAAGTACTCACACCTTGGA (chemistry not given here) [APO 12]
activity in the HIAP1 protein and mRNA assays (HIAP1 protein): high activity, or had significant activity in both the protein and mRNA assays | HIAP1 mRNA levels (in words) (HIAP1 mRNA): did not cause a stress-induced increase in HIAP1 mRNA | decrease of HIAP1 mRNA compared to mock or scrambled survivin control (HIAP1 mRNA): ~50%

CCAGTGGTTTGCAAGCATG (chemistry not given here) [APO 7]
activity in the HIAP1 protein and mRNA assays (HIAP1 protein): high activity, or had significant activity in both the protein and mRNA assays | HIAP1 mRNA levels (in words) (HIAP1 mRNA): did not cause a stress-induced increase in HIAP1 mRNA | decrease of HIAP1 mRNA compared to mock or scrambled survivin control (HIAP1 mRNA): ~50%

CTTGTCCACCTTTTCTAAA (antisense; sugars from the 5' end m2 d15 m2, backbone and T or U not given here; further chemistry not fully specified) [Code E3]
XIAP down-regulation T24 RNA (XIAP RNA): 53% | XIAP down-regulation T24 protein (XIAP protein): 64% | XIAP protein levels relative to total protein, compared to mock transfection (in words) (XIAP protein): some decrease | XIAP RNA (XIAP mRNA [1]): 0.48 | XIAP down-regulation H460 RNA (XIAP mRNA [2]): 55%

GAAAGGACTTTACTTTATC (antisense; sugars from the 5' end m2 d15 m2, backbone, methylation of C and T or U not given here; further chemistry not fully specified) [Code D8]
XIAP down-regulation T24 RNA (XIAP RNA): 38% | XIAP down-regulation T24 protein (XIAP protein): 26% | XIAP protein levels relative to total protein, compared to mock transfection (in words) (XIAP protein): some decrease | XIAP RNA (XIAP mRNA [1]): 0.55 | XIAP down-regulation H460 RNA (XIAP mRNA [2]): 49%

GAAATTTAGTGGCCAGGAA (chemistry not given here) [APO 8]
activity in the HIAP1 protein and mRNA assays (HIAP1 protein): high activity, or had significant activity in both the protein and mRNA assays | HIAP1 mRNA levels (in words) (HIAP1 mRNA): did not cause a stress-induced increase in HIAP1 mRNA | decrease of HIAP1 mRNA compared to mock or scrambled survivin control (HIAP1 mRNA): ~50%

GGGCTCAAGTAATTCTCTT (chemistry not given here) [APO 15]
activity in the HIAP1 protein and mRNA assays (HIAP1 protein): high activity, or had significant activity in both the protein and mRNA assays | HIAP1 mRNA levels (in words) (HIAP1 mRNA): did not cause a stress-induced increase in HIAP1 mRNA | decrease of HIAP1 mRNA compared to mock or scrambled survivin control (HIAP1 mRNA): ~50%

GTATAAAGAAACCCTGCTC (antisense; sugars from the 5' end m2 d15 m2, backbone and T or U not given here; further chemistry not fully specified) [Code D4]
XIAP down-regulation T24 RNA (XIAP RNA): 12% | XIAP down-regulation T24 protein (XIAP protein): 43% | XIAP protein levels relative to total protein, compared to mock transfection (in words) (XIAP protein): some decrease | XIAP RNA (XIAP mRNA [1]): 0.48 | XIAP down-regulation H460 RNA (XIAP mRNA [2]): 51%

GTTGTTCCCAAGGGTCTTC (antisense; sugars from the 5' end m2 d15 m2, backbone, methylation of C and T or U not given here; further chemistry not fully specified) [Code E8]
XIAP down-regulation T24 RNA (XIAP RNA): 72% | XIAP down-regulation T24 protein (XIAP protein): 56% | XIAP down-regulation H460 RNA (XIAP mRNA [2]): 44%

TGCCAGTGTTGATGCTGAA (antisense; chemistry not fully specified) [Code C4]
XIAP down-regulation T24 RNA (XIAP RNA): 28% | XIAP down-regulation T24 protein (XIAP protein): 56% | XIAP protein levels relative to total protein, compared to mock transfection (in words) (XIAP protein): some decrease | XIAP RNA (XIAP mRNA [1]): 0.22 | XIAP down-regulation H460 RNA (XIAP mRNA [2]): 77%
